Results on 22 compounds are retold here after US20130184251A1, “HETEROAROMATIC AND AROMATIC PIPERAZINYL AZETIDINYL AMIDES AS MONOACYLGLYCEROL LIPASE INHIBITORS” (Janssen Pharmaceutica, NV, priority 2009, published 2013).

For this experiment, the system named is HeLa cells. Nature of the experiment: 2-AG accumulation assay using HeLa cells. The experiment is classed as cell-based. Conditions: for Emax at 10 µM: Homo sapiens, HeLa cell homogenate, 2-AG accumulation relative to MAFP; for Ex. 5 % MAFP @10 μM: 10 μM compound, 2-AG relative to MAFP, HeLa homogenate.
The mark [1] stands for this setting: compound @10 μM (second of two columns with the same head), read-out: Ex. 5 % MAFP @10 μM (second column).
Setting [2] is: compound @10 μM as printed (first of two columns with the same head), read-out: Ex. 5 % MAFP @10 μM (first column).

Where two headings read alike, the source gives them in different places.

With `Cc1nc2cc(C(=O)N3CC(N4CCN(c5ncccn5)CC4)C3)ccc2n1-c1ccccc1` [compound 14, 2-Methyl-1-phenyl-5-{[3-(4-pyrimidin-2-ylpiperazin-1-yl)azetidin-1-yl]carbonyl}-1H-benzimidazole], the Emax at 10 µM under setting [1] worked out at 106%. As for `O=C(c1ccc(Cc2ccccc2)cc1)N1CC(N2CCN(c3ccccn3)CC2)C1` [compound 30, 1-{1-[(4-Benzylphenyl)carbonyl]azetidin-3-yl}-4-pyridin-2-ylpiperazine], the Emax at 10 µM reads like this: under setting [1], 37.3%; under setting [2], 34.7%.

In the case of `O=C(c1ccc(C2CCCCC2)cc1)N1CC(N2CCN(c3noc4ccccc34)CC2)C1` [compound 33, 3-(4-{1-[(4-Cyclohexylphenyl)carbonyl]azetidin-3-yl}piperazin-1-yl)-1,2-benzisoxazole], the Emax at 10 µM reads like this: under setting [1], 33%; under setting [2], 17.5%. With `CN(C)c1ccc(C(=O)N2CC(N3CCN(c4ncccn4)CC3)C2)cc1` [compound 28, N,N-Dimethyl-4-{[3-(4-pyrimidin-2-ylpiperazin-1-yl)azetidin-1-yl]carbonyl}aniline], the Emax at 10 µM under setting [1] is 82.2%.

As for `CN(c1ccccc1)c1ccc(C(=O)N2CC(N3CCN(c4ccccn4)CC3)C2)cc1` [compound 18, N-Methyl-N-phenyl-4-{[3-(4-pyridin-2-ylpiperazin-1-yl)azetidin-1-yl]carbonyl}aniline], the Emax at 10 µM under setting [1] worked out at 66.2%. Still for that read-out and setting: the result for `O=C(c1ccc(-c2ccc(F)cc2)cc1)N1CC(N2CCN(c3ncccn3)CC2)C1` [compound 9, 2-(4-{1-[(4′-Fluorobiphenyl-4-yl)carbonyl]azetidin-3-yl}piperazin-1-yl)pyrimidine] reads 81%; that for `O=C(c1ccccc1)c1cccc(C(=O)N2CC(N3CCN(c4ccccn4)CC3)C2)c1` [compound 86, Phenyl(3-{[3-(4-pyridin-2-ylpiperazin-1-yl)azetidin-1-yl]carbonyl}phenyl)methanone], 10.4%.

As for `O=C(c1ccc(-c2ccccc2)c(F)c1)N1CC(N2CCN(c3ncccn3)CC2)C1` [compound 26, 2-(4-{1-[(2-Fluorobiphenyl-4-yl)carbonyl]azetidin-3-yl}piperazin-1-yl)pyrimidine], the Emax at 10 µM under setting [1] came out at 125%. On to `CC(C)Cn1c(-c2ccccc2)cc2cc(C(=O)N3CC(N4CCN(c5ccccn5)CC4)C3)ccc21` [Compound #214], for which the “Ex. 5 % MAFP @10 μM” value is on record as 93.5 % MAFP. Turning to `O=C(Nc1ccc(C(=O)N2CC(N3CCN(c4ccccn4)CC3)C2)cc1)C1CCCCC1` [compound 27, N-(4-{[3-(4-Pyridin-2-ylpiperazin-1-yl)azetidin-1-yl]carbonyl}phenyl)cyclohexanecarboxamide], the Emax at 10 µM under setting [1] is 110% and the Emax at 10 µM under setting [2] was found to be 66.2%. The corresponding values for `O=C(c1ccc(C2CCCCC2)cc1)N1CC(N2CCN(c3nccs3)CC2)C1` [compound 6, 1-{1-[(4-Cyclohexylphenyl)carbonyl]azetidin-3-yl}-4-(1,3-thiazol-2-yl)piperazine] are 41.5% and 24.3%. In the case of `O=C(c1ccccc1)c1ccc(C(=O)N2CC(N3CCN(c4ccccn4)CC3)C2)cc1` [compound 74, Phenyl(4-{[3-(4-pyridin-2-ylpiperazin-1-yl)azetidin-1-yl]carbonyl}phenyl)methanone], under setting [1], the Emax at 10 µM came out at 29.5%. Turning to `O=C(c1ccc(-c2ccccc2)c(F)c1)N1CC(N2CCN(c3ccccn3)CC2)C1` [compound 60, 1-{1-[(2-Fluorobiphenyl-4-yl)carbonyl]azetidin-3-yl}-4-pyridin-2-ylpiperazine], the Emax at 10 µM reads like this: under setting [1], 57.8%; under setting [2], 28.2%. On to `O=C1c2ccccc2-c2ccc(C(=O)N3CC(N4CCN(c5ccccn5)CC4)C3)cc21` [compound 59, 2-{[3-(4-Pyridin-2-ylpiperazin-1-yl)azetidin-1-yl]carbonyl}-9H-fluoren-9-one], for which the Emax at 10 µM is 39.7% under setting [1] and 10.2% under setting [2]. Consider `COc1ccc(-c2nc3cccc(C(=O)N4CC(N5CCN(c6ccccn6)CC5)C4)c3o2)cc1` [Compound #210], for which the “Ex. 5 % MAFP @10 μM” value came out at 79.5 % MAFP. With `CN(c1ccc(C(=O)N2CC(N3CCN(c4ccccn4)CC3)C2)cc1)C1CCCCC1` [Compound #1, N-Cyclohexyl-N-methyl-4-{[3-(4-pyridin-2-ylpiperazin-1-yl)azetidin-1-yl]carbonyl}aniline], under setting [1], the Emax at 10 µM was 70.5%. On the same count and under the same terms, the result for `CC1(C)CCC(C)(C)c2cc(CCC(=O)N3CC(N4CCN(c5ccccn5)CC4)C3)ccc21` [compound 29, 1-Pyridin-2-yl-4-{1-[3-(5,5,8,8-tetramethyl-5,6,7,8-tetrahydronaphth-2-yl)propanoyl]azetidin-3-yl}piperazine] reads 76.5%; that for `Cc1nc2cc(C(=O)N3CC(N4CCN(c5ncccn5)CC4)C3)ccc2n1C1CCCCC1` [compound 17, 1-Cyclohexyl-2-methyl-5-{[3-(4-pyrimidin-2-ylpiperazin-1-yl)azetidin-1-yl]carbonyl}-1H-benzimidazole], 83.9%; that for `O=C(c1ccc(N2CCCCCC2)cc1)N1CC(N2CCN(c3ccccn3)CC2)C1` [compound 3, 1-(4-{[3-(4-Pyridin-2-ylpiperazin-1-yl)azetidin-1-yl]carbonyl}phenyl)azepane], 67.3%. On to `O=C(c1cccc(-c2ccc(F)cc2)c1)N1CC(N2CCN(c3ccccn3)CC2)C1` [compound 52, 1-{1-[(4′-Fluorobiphenyl-3-yl)carbonyl]azetidin-3-yl}-4-pyridin-2-ylpiperazine], for which the Emax at 10 µM is 52.2% under setting [1] and 28% under setting [2]. For `O=C(c1ccc(-c2ccccc2)cc1)N1CC(N2CCN(c3nccs3)CC2)C1` [compound 36, 1-[1-(Biphenyl-4-ylcarbonyl)azetidin-3-yl]-4-(1,3-thiazol-2-yl)piperazine], the Emax at 10 µM under setting [1] came to 91.3%.

As to `N#Cc1cccnc1N1CCN(C2CN(C(=O)c3ccc(-c4ccccc4)cc3)C2)CC1` [compound 23, 2-(4-[1-(Biphenyl-4-ylcarbonyl)azetidin-3-yl]piperazin-1-yl}pyridine-3-carbonitrile], under setting [1], the Emax at 10 µM is 96.8%.
